Measured values from patent publication US6486153B1, “Phenylindole derivatives as 5-HT2A receptor ligands” (Merck Sharp & Dohme Ltd., priority 1997, dated 2002).
Where a name gives a salt, the structure may show the parent alone.

Tests used:
[1] = biological target: human dopamine D2 receptor (Homo sapiens, UniProt P14416); conditions: cited from earlier work
schizophrenic patients = conditions: multicentre, placebo-controlled study; cited from earlier work

human dopamine D2 receptor, sequence (P14416 whole entry): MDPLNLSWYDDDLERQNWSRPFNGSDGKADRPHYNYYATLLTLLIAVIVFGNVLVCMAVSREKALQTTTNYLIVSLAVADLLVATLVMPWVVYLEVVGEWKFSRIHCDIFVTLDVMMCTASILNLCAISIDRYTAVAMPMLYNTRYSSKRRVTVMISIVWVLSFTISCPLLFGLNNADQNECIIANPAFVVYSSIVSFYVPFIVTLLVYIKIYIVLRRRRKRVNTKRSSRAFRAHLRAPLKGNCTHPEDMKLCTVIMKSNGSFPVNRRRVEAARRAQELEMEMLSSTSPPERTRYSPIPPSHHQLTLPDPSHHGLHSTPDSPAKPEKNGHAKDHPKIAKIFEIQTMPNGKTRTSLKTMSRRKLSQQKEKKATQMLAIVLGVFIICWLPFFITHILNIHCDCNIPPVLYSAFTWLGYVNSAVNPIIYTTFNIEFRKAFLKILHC

SMILES	melting point	also measured
COc1cccc2[nH]c(-c3ccccc3)c(CCN3CCCCC3)c12	260 to 262 °C	–
Brc1ccc2[nH]c(-c3ccccc3)c(CCN3CCCCC3)c2c1 (as salt: oxalate)	121 to 122 °C	–
Brc1cccc2c(CCN3CCCCC3)c(-c3ccccc3)[nH]c12 (as salt: oxalate)	206 to 207 °C	–
Clc1cccc2c(CCN3CCCCC3)c(-c3ccccc3)[nH]c12 (as salt: oxalate)	178 to 179 °C	–
Cc1ccc2[nH]c(-c3ccccc3)c(CCN3CCCCC3)c2c1 (as salt: oxalate)	163 to 164 °C	–
Fc1ccc2c(CCN3CCCCC3)c(-c3ccccc3)[nH]c2c1 (as salt: oxalate)	214 to 215 °C	–
Brc1cccc2[nH]c(-c3ccccc3)c(CCN3CCCCC3)c12 (as salt: oxalate)	> 230 °C	–
Brc1ccc2c(CCN3CCCCC3)c(-c3ccccc3)[nH]c2c1 (as salt: oxalate)	> 230 °C	–
Cc1cccc2c(CCN3CCCCC3)c(-c3ccccc3)[nH]c12 (as salt: oxalate)	159 to 161 °C	–
Fc1cc(F)c2[nH]c(-c3ccccc3)c(CCN3CCCCC3)c2c1 (as salt: oxalate)	185 to 187 °C	–
c1ccc(-c2ccc3c(CCN4CCCCC4)c(-c4ccccc4)[nH]c3c2)cc1 (as salt: oxalate)	129 to 131 °C	–
COc1cccc2c(CCN3CCCCC3)c(-c3ccccc3)[nH]c12 (as salt: oxalate)	203 to 205 °C	–
CC(Cc1c(-c2ccccc2)[nH]c2ccccc12)N1CCCCC1 (centres unmarked) (as salt: oxalate)	240 °C	–
Fc1ccc2[nH]c(-c3ccccc3)c(CCN3CCCCC3)c2c1 (as salt: trifluoroacetic acid salt)	141 to 143 °C	–
COc1cccc(C(O)C2CCN(CCc3ccc(F)cc3)CC2)c1OC (stereo not drawn) [MDL-100,907, (+)-α-(2,3-dimethoxyphenyl)-1-[2-(4-fluorophenyl)ethyl]-4-piperidinemethanol]	–	activity at the human dopamine D2 receptor [1]: essentially devoid of activity; antipsychotic efficacy in clinical study (schizophrenic patients): demonstrated efficacy; neurological adverse effects in clinical study (schizophrenic patients): no neurological adverse effects
